In one assay the target is COX-1 (Homo sapiens, UniProt P23219). The experiment in a line: COX-1 activity. Format: biochemical. As to the method: The highest plasma concentrations generally occurred in 1-2 hours. […] The highest level of inhibition was ˜35% for 2C19 at a 30 μM concentration. […] Lastly, VGX-1027 is stable in human liver S9 fractions (with phase 1 and 2 cofactors) with t1/2>90 minutes, which indicates a low likelihood of metabolism in the liver.

Assay [1] has as its system Peritoneal macrophages (PM). The experiment in a line: In vitro cytokine synthesis by peritoneal macrophages. Format: cell-based, mice. From the text:
Peritoneal macrophages (PM) and splenic mononuclear cells (SMNC) were isolated from normal mice, cultured in nutrient medium and stimulated with LPS and/or ConA in the absence or presence of VGX-1027. […] VGX-1027 had no effect on MIF expression in either cell type, on proliferation of SMNC, and on IL-10 and Interferon (IFN) γ production by SMNC.

The test system of assay [2] is Peritoneal macrophages (PM). The experiment in a line: Ex vivo cytokine synthesis by PM from treated mice. Type of assay: cell-based. The procedure: These experiments were carried out to explore if intraperitoneal (i.p.) or oral administration (p.o.) in mice with VGX-1027 could influence the proliferative response of SMNC and the production of IL-1β, IL-10, TNF-α, IFN-γ and MIF from isolated PM and SMNC. PM and SMNC isolated from mice treated in vivo with VGX-1027 for 7 consecutive days intraperitoneally (0.5 mg/mouse), or orally (2.5 mg/mouse), or isolated from control animals that received VGX-1027 vehicle (Na2HPO4/H2O), or were without any treatment. 24 h after the last VGX-1027 treatment, PM and SMNC were collected for further in vitro stimulation and analysis.

Assay [3] relates to In vitro-derived human DCs. The assay can be described thus: LPS-induced cytokine production of dendritic cells. Format: cell-based. Particulars: LPS 5 μg/ml, 10 mM, 72 hours. The procedure: In vitro-derived human DCs were treated with LPS (5 μg/ml), with or without VGX-1027 (10 mM) for 72 hours. Concentrations of the cytokines in the media were measured via ELISA.
A further assay deals with splenic DCs. The experiment in a line: LPS-induced maturation of dendritic cells in vivo. Also noted: species or system mice. The following applies: 0.5 mg/mouse 1 hour prior to LPS. The procedure: Mice were given VGX-1027 (0.5 mg/mouse) or a control, and then injected with LPS (25 μg/mouse) 1 hour later. At 3 hours post LPS administration, the mice were sacrificed, and (A) % of splenic DCs with CD86 and (B) MFI of CD86 from the CD86+ cells were measured.
To determine if this effect could be translated in vivo, mice were injected with LPS and the % of DCs that express CD86, which is a maturation marker, and the MR of CD86 on the positive cells were measured. The activation of DCs via CD86 expression, and not total cytokine levels, was measured in order to ascertain the direct affects of VGX-1027 on DCs. In vivo cytokine measurement could be confounded by other cytokine producing cells, such as macrophages. The mice were injected with LPS or LPS+VGX-1027 (VGX-1027 was given 1 hour prior to LPS administration) 3 hours post injection. The spleen from these mice were extracted and analyzed for DCs with CD86 expression. […] Moreover, the VGX1027-induced decrease in the percentage of cells that expressed CD86 and was associated with a decrease in the expression of CD86 per cell (FIG. 7b). Therefore, VGX-1027 inhibits LPS-induced production of Th17-promoting inflammatory cytokines by DCs in vitro and reduces LPS-induced maturation of DCs in vivo.

For assay [4], the system named is type II collagen-induced arthritis. The experiment in a line: Type II collagen-induced arthritis (CIA). Format: in vivo, mice. As to the method:
VGX-1027 was administered intraperitoneally and were measured for an arthritic score (A), cumulative arthritic score (B), hind paws edema (C), and histological score (D) were measured. Data are shown as mean values±SD form 2 independent experiments. Statistical analysis was performed by Student's t test. *p<0.0001 was taken as significant.
To induce CIA, the mice were injected intradermally at the base of the tail with […] of an emulsion containing […] of CII, and were boosted on day 21. In terms of treatment, VGX-1027 was used only as a “therapeutic” regime by administering the drug via intraperitoneal administration to mice with a clinical score equal or higher than 1. The mice were treated with vehicle, dexamethasone (0.3 mg/kg), or VGX-1027 (0.5 mg/mouse) for 10 consecutive days. The mice were assessed with the following scoring system: 0=no signs of arthritis; 1=swelling and/or redness of the paw or 1 digit; 2=involvement of 2 joints; 3=involvement of N2 joints, and 4=severe arthritis of the entire paw and digits. An arthritis index was calculated for each mouse by summing the scores for the individual paws. Other clinical severity measures were hind paw volume and histological assessment of damage; the latter was measured with the following criteria: 0=no damage; 1=edema; 2=presence of inflammatory cells; and 3-bone resorption.

We go through one compound from patent publication US20150064221A1, “COMPOUNDS HAVING IMMUNOMUDULATOR ACTIVITY” (priority 2012, published 2015).

“Also recorded” adds a separate entry of the source.

Sequence of COX-1 (P23219 24-599): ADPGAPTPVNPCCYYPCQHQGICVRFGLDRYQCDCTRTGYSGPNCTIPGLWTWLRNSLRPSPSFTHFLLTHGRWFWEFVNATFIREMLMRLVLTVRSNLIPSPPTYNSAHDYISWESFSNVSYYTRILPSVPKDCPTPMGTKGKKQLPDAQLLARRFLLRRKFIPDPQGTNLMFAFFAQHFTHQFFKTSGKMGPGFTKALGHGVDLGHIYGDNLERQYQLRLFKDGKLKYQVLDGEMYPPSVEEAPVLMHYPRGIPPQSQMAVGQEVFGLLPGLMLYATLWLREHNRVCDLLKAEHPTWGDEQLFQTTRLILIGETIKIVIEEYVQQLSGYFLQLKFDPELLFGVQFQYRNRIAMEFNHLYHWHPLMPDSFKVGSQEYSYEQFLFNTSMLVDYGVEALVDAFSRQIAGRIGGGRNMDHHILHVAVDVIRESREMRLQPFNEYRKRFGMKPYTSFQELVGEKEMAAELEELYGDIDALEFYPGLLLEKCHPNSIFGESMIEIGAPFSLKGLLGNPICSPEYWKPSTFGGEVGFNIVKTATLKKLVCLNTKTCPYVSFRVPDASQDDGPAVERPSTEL

Consider `O=C(O)CC1CC(c2ccccc2)=NO1` (centres unmarked) [VGX-1027, 3-phenyl-4,5-dihydro-5-isoxazoleacetic acid], for which the “inhibition of COX-1 activity” value against COX-1 is given as “no significant inhibition”. Also, in assay [1], the “IL-1 β production” value is reported as “inhibited”, the IL-10 production entry is recorded as “inhibited” and the MIF expression result is recorded as “no effect”. The TNF-α production entry in assay [1] (LPS and/or ConA stimulated) is listed as “markedly inhibited”. Besides, in assay [2] (mice treated 7 days), the IL-10 synthesis entry is given as “impaired synthesis” and the TNF-α synthesis entry was “impaired synthesis”. Moreover, the “IL-1 β synthesis” value in assay [2] (mice treated 7 days i.p. 0.5 mg/mouse or orally 2.5 mg/mouse) is recorded as “impaired synthesis”. Besides, in assay [2] (mitogenic stimulation), the MIF expression entry is listed as “normal pattern”. Besides, in assay [3], the IL-6 production entry is “dramatically repressed”, the IL-18 production result is on record as “dramatically repressed”, the IL-23 production result was “dramatically repressed” and the TNF-α production entry is given as “dramatically repressed”. Besides, in the assay on splenic DCs, the “expression of CD86 per cell (MFI)” value was “decrease” and the “overall percentage of DCs in the spleen” value is recorded as “without affecting”. In addition, the “% of DCs that expressed CD86” value in the assay on splenic DCs (3 hours post LPS) is recorded as “reduced this percentage”. Further, in assay [4] (after 3 days of therapy), the hind paw volume entry is listed as “significant decreases” and the mean arthritic score result was “significant decreases”. Also, the “inflammation via histological measurement” value in assay [4] (mouse, in vivo) is on record as “improvements”. In assay [4] (therapeutic, i.p. 0.5 mg/mouse, 10 days), the “clinical features of CIA” value is “attenuated; also recorded: comparable to the amount observed with dexamethasone”.
